Where two headings read alike, the source gives them in different places.
Assays:
[1] = test system: Colletotrichum lindemuthianum; experiment: Colletotrichum lindemuthianum in vitro cell test; type: cell-based; settings: 144 h, 20 ppm of active ingredient, 6 days incubation, read-out: efficacy (direct activity, inhibition of fungal growth)
Description: Solvent: DMSO Culture medium: 14.6 g anhydrous D-glucose (VWR), 7.1 g Mycological Peptone (Oxoid), 1.4 g granulated Yeast Extract (Merck), QSP 1 liter Inoculum: spores suspension Fungicides were solubilized in DMSO and the solution used to prepare the required range of concentrations. The final concentration of DMSO used in the assay was ≤1%. A spore suspension of C. lindemuthianum was prepared and diluted to the desired spore density. Fungicides were evaluated for their ability to inhibit spores germination and mycelium growth in liquid culture assay. The compounds were added in the desired concentration to the culture medium with spores. After 6 days incubation, fungi-toxicity of compounds was determined by spectrometric measurement of mycelium growth. Inhibition of fungal growth was determined by comparing the absorbance values in wells containing the fungicides with the absorbance in control wells without fungicides.

[2] = test system: salicylate responsive promoter sequence of the PR1 (pathogenesis-related protein I) gene (AT2G14610); experiment: Induction of defense gene expression in Arabidopsis thaliana (PR1 promoter-GFP reporter plants); type: in vivo; settings: 72 h, 3rd day after spraying, mock treated leaves set as 1.00, read-out: relative fluorescence value; for fold induction at 75 ppm: 75 ppm of compound
Description: Arabidopsis thaliana reporter plants containing the coding sequence of a green fluorescent protein (GFP) linked to the salicylate responsive promoter sequence of the PR1 (pathogenesis-related protein I) gene (AT2G14610) were grown for five days and then sprayed with compounds. On the 3rd day after spraying, plant fluorescence was assessed with a MacroFluo instrument from Leica Microsystems (Wetzlar, Germany). Fluorescences were quantified with the Meta-Morph Microscopy Automation & Image Analysis Software (Molecular Devices, Sunnyvale, Calif., United States).
Background fluorescence in mock treated leaves was set as 1.00.

Uromyces appendiculatus = experiment: In vivo preventive test on Uromyces appendiculatus (bean rust); settings: Uromyces appendiculatus, 240 h, bean, evaluated 10 days after inoculation, read-out: efficacy; for pest or weed control at 31 ppm: 31 ppm of active ingredient; for pest or weed control at 125 ppm: 125 ppm of active ingredient; for pest or weed control at 500 ppm: 500 ppm of active ingredient
Description: (§1) The tested active ingredients were prepared by homogenization in a mixture of acetone/Dimethyl sulfoxide/Tween®, and then diluted with water to obtain the desired active material concentration.
The young plants of bean were treated by spraying the active ingredient prepared as described above.
Control plants were treated only with an aqueous solution of acetone/Dimethyl sulfoxide/Tween®.
After 72 hours, the plants were contaminated by spraying the leaves with an aqueous suspension of Uromyces appendiculatus spores. The contaminated bean plants were incubated for 24 hours at 20° C. and at 100% relative humidity and then for 9 days at 20° C. and at 70-80% relative humidity.
The test was evaluated 10 days after the inoculation. 0% means an efficacy which corresponds to that of the control plants while an efficacy of 100% means that no disease was observed.
Compound CMP1 was tested in an in vivo preventive test on Uromyces appendiculatus (bean rust) in the same conditions as described in Example G.

[3] = Log P by HPLC on reversed phase columns (EEC directive 79/831 Annex V.A8); type: physicochemical; settings: for chromatographic logP: reversed phase HPLC columns
Description: In the above table, measurement of Log P values was performed according to EEC directive 79/831 Annex V.A8 by HPLC (High Performance Liquid Chromatography) on reversed phase columns with the following methods: • [^a] Log P value is determined by measurement of LC-UV, in an acidic range, with 0.1% formic acid in water and acetonitrile as eluent (linear gradient from 10% acetonitrile to 95% acetonitrile). • [^b] Log P value is determined by measurement of LC-UV, in a neutral range, with 0.001 molar ammonium acetate solution in water and acetonitrile as eluent (linear gradient from 10% acetonitrile to 95% acetonitrile). • [^c] Log P value is determined by measurement of LC-UV, in an acidic range, with 0.1% phosphoric acid and acetonitrile as eluent (linear gradient from 10% acetonitrile to 95% acetonitrile).
If more than one Log P value is available within the same method, all the values are given and separated by “+”.
Calibration was done with straight-chain alkan2-ones (with 3 to 16 carbon atoms) with known Log P values (measurement of Log P values using retention times with linear interpolation between successive alkanones). Lambda-max-values were determined using UV-spectra from 200 nm to 400 nm and the peak values of the chromatographic signals.

[4] = test system: Xanthomonas campestris pv. campestris; experiment: Xanthomonas campestris pv. campestris in vitro cell test; type: cell-based; settings: 20 ppm of active ingredient, 24 h incubation, read-out: efficacy (direct activity, inhibition of bacteria growth)
Description: Solvent: DMSO Culture medium: LB broth medium (Luria Broth Miller) Sigma Inoculum: bacteria suspension Compounds were solubilized in DMSO and the solution used to prepare the required range of concentrations. The final concentration of DMSO used in the assay was ≤1%. Inoculum was prepared from a pre-culture of bacteria grown in liquid medium and diluted to the desired optical density (OD). Compounds were evaluated for their ability to inhibit bacteria growth in liquid culture assay. The compounds were added in the desired concentrations to culture medium containing the bacteria suspension. After 24 h of incubation, the efficacy of compounds was determined by spectrometric measurement of bacteria growth. Inhibition was determined by comparing the absorbance values in wells containing the compounds with the absorbance in control wells without active ingredients.

Peronospora parasitica = experiment: In vivo preventive test on Peronospora parasitica (crucifer downy mildew); settings: Hyaloperonospora parasitica, 120 h; 125 ppm of active ingredient; cabbage; evaluated 5 days after inoculation; read-out: efficacy
Description: as §1
(§2) The young plants of cabbage were treated by spraying the active ingredient prepared as described above. Control plants were treated only with an aqueous solution of acetone/Dimethyl sulfoxide/Tween®.
After 72 hours, the plants were contaminated by spraying the leaves with an aqueous suspension of Peronospora parasitica spores. The contaminated cabbage plants were incubated for 5 days at 20° C. and at 100% relative humidity.
The test was evaluated 5 days after the inoculation. 0% means an efficacy which corresponds to that of the control plants while an efficacy of 100% means that no disease was observed.

[5] = test system: Xanthomonas campestris pv. campestris; experiment: In vivo preventive test on Xanthomonas campestris pv. campestris (black rot on cabbage); settings: Xanthomonas campestris, cabbage, evaluated 8 or 10 days after inoculation, read-out: efficacy; for pest or weed control at 31 ppm: 31 ppm of active ingredient; for pest or weed control at 125 ppm: 125 ppm of active ingredient
Description: as §1, §2
After 72 hours, the plants were contaminated by spraying the leaves with an aqueous bacteria suspension of Xanthomonas campestris pv. campestris. The contaminated cabbage plants were incubated for 8 or 10 days at 27° C. at 95% relative humidity.
The test was evaluated 8 or 10 days after the inoculation. 0% means an efficacy which corresponds to that of the control plants while an efficacy of 100% means that no disease was observed.
Compound CMP1 was tested in an in vivo preventive test on Xanthomonas campestris pv. campestris (black rot on cabbage) in the same conditions as described in Example F.

[6] = method [a]: LC-UV, acidic range, 0.1% formic acid in water and acetonitrile as eluent
[7] = given in preparation examples, method not marked

CC1(C)N=C(c2sc(Br)c(Br)c2F)OC1=O [I.16]
inhibition at 20 ppm [1]: ≤ 30% | fold induction at 75 ppm [2]: > 2 | fold induction at 300 ppm [2]: > 2 | pest or weed control at 31 ppm (Uromyces appendiculatus): 90 to 100% | pest or weed control at 125 ppm (Uromyces appendiculatus): 90 to 100% | chromatographic logP [3, 6]: 3.77 | inhibition at 20 ppm [4]: ≤ 30% | pest or weed control at 125 ppm (Peronospora parasitica): 90 to 100%

O=C1SC(c2sc(Br)c(Br)c2Br)=NC12CC2 [I.04]
LogP [3, 6]: 5.61^[a]

Cc1c(C2=NC(C(C)C)C(=O)O2)sc(Br)c1Br (stereo not drawn) [I.10]
LogP [3, 6]: 5.31^[a]

Cc1c(C(=O)O)sc(C#N)c1Br [4-bromo-5-cyano-3-methylthiophene-2-carboxylic acid]
chromatographic logP [3, 7]: 2.05

COC(=O)C1(NC(=O)c2sc(C#N)c(Br)c2C)CC1 [methyl 1-{[(4-bromo-5-cyano-3-methyl-2-thienyl)carbonyl]amino}cyclopropanecarboxylate]
chromatographic logP [3, 7]: 2.31

O=C1SC(c2sc(Br)c(Br)c2I)=NC12CC2 [I.14]
LogP [3, 6]: 5.61^[a]

Cc1c(C2=NC3(CC3)C(=O)O2)sc(C#N)c1Cl [I.07]
LogP [3, 6]: 3.25^[a]

CC1(C)N=C(c2sc(Cl)c(Br)c2Cl)OC1=O [I.21]
inhibition at 20 ppm [1]: ≤ 30% | pest or weed control at 31 ppm (Uromyces appendiculatus): 90 to 100% | pest or weed control at 125 ppm (Uromyces appendiculatus): 90 to 100% | chromatographic logP [3, 6]: 4.26 | inhibition at 20 ppm [4]: ≤ 30% | pest or weed control at 125 ppm (Peronospora parasitica): 90 to 100%

N#Cc1sc(C2=NC3(CC3)C(=O)O2)cc1Br [I.05]
LogP [3, 6]: 2.83^[a]

O=C1SC(c2sc(Br)c(Br)c2F)=NC12CC2 [I.03, 5-(4,5-dibromo-3-fluoro-2-thienyl)-6-thia-4-azaspiro[2.4]hept-4-en-7-one]
inhibition at 20 ppm [1]: ≤ 30% | fold induction at 300 ppm [2]: > 2 | chromatographic logP [3, 7]: 5.08 | chromatographic logP [3, 6]: 5.08 | inhibition at 20 ppm [4]: ≤ 30% | pest or weed control at 31 ppm [5]: 70 to 79% | pest or weed control at 125 ppm [5]: 70 to 79%

COC(=O)C1(NC(=S)c2sc(Br)c(Br)c2F)CC1 [methyl 1-{[(4,5-dibromo-3-fluoro-2-thienyl)carbonothioyl]amino}cyclopropanecarboxylate]
chromatographic logP [3, 7]: 3.91

Cc1c(C2=NC3(CC3)C(=O)S2)sc(Br)c1Br [I.02]
inhibition at 20 ppm [1]: ≤ 30% | fold induction at 75 ppm [2]: > 2 | fold induction at 300 ppm [2]: > 2 | pest or weed control at 500 ppm (Uromyces appendiculatus): 70 to 79% | chromatographic logP [3, 6]: 5.65 | inhibition at 20 ppm [4]: ≤ 30% | pest or weed control at 125 ppm [5]: 80 to 89%

Cc1c(C2=NC(C)(C)C(=O)O2)sc(Cl)c1Cl [I.24]
inhibition at 20 ppm [1]: ≤ 30% | pest or weed control at 125 ppm (Uromyces appendiculatus): 90 to 100% | chromatographic logP [3, 6]: 4.51 | inhibition at 20 ppm [4]: ≤ 30% | pest or weed control at 125 ppm (Peronospora parasitica): 80 to 89%

O=C(O)c1ccccc1O [Salicylic acid, reference compound]
fold induction at 300 ppm [2]: 2.7

Cc1c(C2=NC3(CCC3)C(=O)O2)sc(Cl)c1Cl [I.19]
inhibition at 20 ppm [1]: ≤ 30% | pest or weed control at 31 ppm (Uromyces appendiculatus): 90 to 100% | pest or weed control at 125 ppm (Uromyces appendiculatus): 90 to 100% | chromatographic logP [3, 6]: 4.75 | inhibition at 20 ppm [4]: ≤ 30% | pest or weed control at 125 ppm (Peronospora parasitica): 90 to 100%

Cc1c(C2=NC3(CC3)C(=O)S2)sc(Cl)c1Cl [I.15]
LogP [3]: 5.53^[a]

CC1(C)N=C(c2sc(Cl)c(Cl)c2Br)OC1=O [I.23]
inhibition at 20 ppm [1]: ≤ 30% | pest or weed control at 31 ppm (Uromyces appendiculatus): 70 to 79% | chromatographic logP [3, 6]: 4.33 | inhibition at 20 ppm [4]: ≤ 30%

O=C(O)C1(NC(=S)c2sc(Br)c(Br)c2F)CC1 [1-{[(4,5-dibromo-3-fluoro-2-thienyl)carbonothioyl]amino}cyclopropanecarboxylic acid]
chromatographic logP [3, 7]: 2.95

Cc1c(C(=O)NC2(C(=O)O)CC2)sc(C#N)c1Br [1-{[(4-bromo-5-cyano-3-methyl-2-thienyl)carbonyl]amino}cyclopropanecarboxylic acid]
Log P [3, 7]: 1.84 | chromatographic logP [3, 7]: 1.88

O=C1SC(c2sc(Cl)c(Cl)c2Cl)=NC12CC2 [I.01]
fold induction at 300 ppm [2]: > 2 | pest or weed control at 500 ppm (Uromyces appendiculatus): 90 to 100% | chromatographic logP [3, 6]: 5.61 | inhibition at 20 ppm [4]: ≤ 30% | pest or weed control at 125 ppm (Peronospora parasitica): 80 to 89% | pest or weed control at 31 ppm [5]: 80 to 89%

CC1(C)N=C(c2sc(Cl)c(Br)c2Br)OC1=O [I.18]
LogP [3, 6]: 4.32^[a]
